Values of other authors in patent US20220056157A1, “PROCESS FOR FRACTIONATING AN ESTERIFIED CELLULOSE ETHER” (DOW GLOBAL TECHNOLOGIES LLC, priority 2015, published 2022).
≈ marks a conversion by molar mass, not a printed value.

## CCOC(=O)N1c2ccc(C(F)(F)F)cc2[C@@H](N(Cc2cc(C(F)(F)F)cc(C(F)(F)F)c2)C(=O)OC)C[C@H]1CC [Torcetrapib]
  water solubility: 0.13 ng/mL (≈ 0.216 nM)
